# Like-named read-outs stand apart in the source and are kept apart here.
# Columns and labels:
# Capan-1 (K-Ras G12V) = experiment: CellTiter-Glo cell viability assay, 5-day treatment; assay type: cell-based; settings: Homo sapiens, CAPAN-1, 120 h
# Method in brief: (§1)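 Seeded cells received test compound by direct dispensing. On day 5 the plates sat at room temperature approximately 30 minutes, then luminescence was measured. Data were normalized to DMSO and curve-fitted with four parameters.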
# NCI-H358 (K-Ras G12C) = experiment: as above; assay type: cell-based; settings: Homo sapiens, NCI-H358, 120 h
# Method in brief: as §1
# KRAS G12S = KRAS G12S (Homo sapiens, UniProt P01116+P62937, G12S); experiment: Disruption of BRAF RBD interaction with Ras (FRET / MOA assay, with Cyclophilin A); assay type: biochemical
# Sequence of KRAS G12S (P01116 1-169 isoform P01116-2 G12S limits assumed): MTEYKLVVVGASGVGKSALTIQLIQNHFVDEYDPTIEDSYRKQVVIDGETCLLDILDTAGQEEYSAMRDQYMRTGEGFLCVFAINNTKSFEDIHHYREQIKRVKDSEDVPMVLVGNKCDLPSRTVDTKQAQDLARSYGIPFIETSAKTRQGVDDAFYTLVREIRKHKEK
# Sequence of KRAS G12S (P62937 whole entry): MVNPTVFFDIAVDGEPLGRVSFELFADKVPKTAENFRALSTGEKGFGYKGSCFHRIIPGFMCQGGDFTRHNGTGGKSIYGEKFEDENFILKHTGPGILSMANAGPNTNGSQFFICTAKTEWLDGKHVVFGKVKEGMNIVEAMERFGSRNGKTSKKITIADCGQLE
# Method in brief: (§2)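 TR-FRET: nucleotide-loaded K-Ras mutant or WT with Cyclophilin A and BRAF RBD, compound 10-point 3-fold from 30 μM final, 3 h at 25° C, then anti-His Eu (10 nM) and anti-GST APC (50 nM) for 1.5 h. Decreased FRET ratio versus DMSO gives IC50.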
# KRAS G12C = KRAS G12C (Homo sapiens, UniProt P01116+P62937, G12C); experiment: as above; assay type: biochemical
# Sequence of KRAS G12C (P01116 1-169 isoform P01116-2 G12C): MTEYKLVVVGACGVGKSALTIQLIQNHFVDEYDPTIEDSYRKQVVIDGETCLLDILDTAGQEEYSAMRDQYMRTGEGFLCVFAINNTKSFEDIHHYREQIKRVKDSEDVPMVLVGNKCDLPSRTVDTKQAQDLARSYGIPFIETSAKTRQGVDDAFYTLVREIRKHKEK
# Sequence of KRAS G12C (P62937 whole entry): as the sequence (P62937 whole entry) above
# Method in brief: as §2
# KRAS G13D = KRAS G13D (Homo sapiens, UniProt P01116+P62937, G13D); experiment: as above; assay type: biochemical
# Sequence of KRAS G13D (P01116 1-169 isoform P01116-2 G13D limits assumed): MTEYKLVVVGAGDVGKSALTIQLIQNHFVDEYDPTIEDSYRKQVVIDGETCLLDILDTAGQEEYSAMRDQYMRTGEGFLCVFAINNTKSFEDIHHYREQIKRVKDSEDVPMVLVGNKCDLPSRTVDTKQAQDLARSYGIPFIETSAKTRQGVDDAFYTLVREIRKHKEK
# Sequence of KRAS G13D (P62937 whole entry): as the sequence (P62937 whole entry) above
# Method in brief: as §2
# NRAS G12C = NRAS G12C (Homo sapiens, UniProt P01111+P62937, G12C); experiment: as above; assay type: biochemical
# Sequence of NRAS G12C (P01111 whole entry G12C): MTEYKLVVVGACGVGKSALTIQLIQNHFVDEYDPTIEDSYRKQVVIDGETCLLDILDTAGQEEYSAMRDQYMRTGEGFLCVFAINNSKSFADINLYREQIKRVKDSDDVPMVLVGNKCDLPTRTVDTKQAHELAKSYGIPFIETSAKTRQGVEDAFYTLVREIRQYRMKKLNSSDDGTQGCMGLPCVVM
# Sequence of NRAS G12C (P62937 whole entry): as the sequence (P62937 whole entry) above
# KRAS WT = KRAS WT (Homo sapiens, UniProt P01116+P62937); experiment: as above; assay type: biochemical
# Sequence of KRAS WT (P01116 1-169 isoform P01116-2 limits assumed): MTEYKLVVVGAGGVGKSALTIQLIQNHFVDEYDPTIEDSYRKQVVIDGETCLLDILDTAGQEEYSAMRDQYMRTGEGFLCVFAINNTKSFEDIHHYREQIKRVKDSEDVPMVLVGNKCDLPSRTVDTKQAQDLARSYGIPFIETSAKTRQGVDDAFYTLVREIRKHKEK
# Sequence of KRAS WT (P62937 whole entry): as the sequence (P62937 whole entry) above
# Method in brief: as §2
# KRAS G12V = KRAS G12V (Homo sapiens, UniProt P01116+P62937, G12V); experiment: as above; assay type: biochemical
# Sequence of KRAS G12V (P01116 1-169 isoform P01116-2 G12V limits assumed): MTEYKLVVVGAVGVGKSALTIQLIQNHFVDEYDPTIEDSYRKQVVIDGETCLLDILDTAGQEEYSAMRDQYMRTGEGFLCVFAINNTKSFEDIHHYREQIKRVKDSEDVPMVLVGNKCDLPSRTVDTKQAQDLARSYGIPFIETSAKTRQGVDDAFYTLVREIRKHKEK
# Sequence of KRAS G12V (P62937 whole entry): as the sequence (P62937 whole entry) above
# Method in brief: as §2
# KRAS G13C = KRAS G13C (Homo sapiens, UniProt P01116+P62937, G13C); experiment: as above; assay type: biochemical
# Sequence of KRAS G13C (P01116 1-169 isoform P01116-2 G13C): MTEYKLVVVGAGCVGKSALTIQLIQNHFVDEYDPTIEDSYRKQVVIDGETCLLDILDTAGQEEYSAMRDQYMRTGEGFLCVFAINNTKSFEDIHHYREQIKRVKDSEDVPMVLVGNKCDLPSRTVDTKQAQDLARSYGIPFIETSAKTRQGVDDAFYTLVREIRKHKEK
# Sequence of KRAS G13C (P62937 whole entry): as the sequence (P62937 whole entry) above
# Method in brief: as §2
# KRAS G12D = KRAS G12D (Homo sapiens, UniProt P01116+P62937, G12D); experiment: as above; assay type: biochemical
# Sequence of KRAS G12D (P01116 1-169 isoform P01116-2 G12D limits assumed): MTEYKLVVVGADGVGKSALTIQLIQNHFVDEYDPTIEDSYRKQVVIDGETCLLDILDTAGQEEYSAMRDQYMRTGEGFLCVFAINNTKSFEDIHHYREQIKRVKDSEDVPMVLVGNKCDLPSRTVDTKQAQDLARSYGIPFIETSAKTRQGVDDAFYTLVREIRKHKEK
# Sequence of KRAS G12D (P62937 whole entry): as the sequence (P62937 whole entry) above
# Method in brief: as §2
# NRAS Q61R = NRAS Q61R (Homo sapiens, UniProt P01111+P62937, Q61R); experiment: as above; assay type: biochemical; settings: NRAS Q61R; read-out: NRAS Q61R FRET data IC50
# Sequence of NRAS Q61R (P01111 whole entry Q61R): as the sequence (P01111 whole entry G12C) above, with C12G, Q61R counted along it
# Sequence of NRAS Q61R (P62937 whole entry): as the sequence (P62937 whole entry) above
# Method in brief: (§3)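 IC50 reflects compound-driven Ras:Cyclophilin A ternary complex displacing BRAF RBD, read as lowered TR-FRET ratio relative to DMSO after Eu anti-His (10 nM) and APC anti-GST (50 nM) detection for 1.5 h. Prior incubation 3 h, 25° C, with 12.5 nM GMPPNP-loaded Ras, 50 nM BRAF RBD, 25 μM Cyclophilin A; top compound 30 μM.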
# NRAS Q61K = NRAS Q61K (Homo sapiens, UniProt P01111+P62937, Q61K); experiment: as above; assay type: biochemical; settings: NRAS Q61K; read-out: NRAS Q61K FRET data IC50
# Sequence of NRAS Q61K (P01111 whole entry Q61K): as the sequence (P01111 whole entry G12C) above, with C12G, Q61K counted along it
# Sequence of NRAS Q61K (P62937 whole entry): as the sequence (P62937 whole entry) above
# Method in brief: as §3
# KRAS Q61H = KRAS Q61H (Homo sapiens, UniProt P01116+P62937, Q61H); experiment: as above; assay type: biochemical; settings: KRAS Q61H; read-out: KRAS Q61H FRET data IC50
# Sequence of KRAS Q61H (P01116 1-169 isoform P01116-2 Q61H limits assumed): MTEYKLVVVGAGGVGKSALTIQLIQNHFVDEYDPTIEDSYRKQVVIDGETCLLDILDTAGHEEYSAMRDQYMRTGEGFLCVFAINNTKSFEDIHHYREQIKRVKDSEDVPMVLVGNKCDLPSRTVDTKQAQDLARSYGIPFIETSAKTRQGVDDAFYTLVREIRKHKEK
# Sequence of KRAS Q61H (P62937 whole entry): as the sequence (P62937 whole entry) above
# Method in brief: as §3
# NRAS WT = NRAS WT (Homo sapiens, UniProt P01111+P62937); experiment: as above; assay type: biochemical; settings: NRAS WT; read-out: NRAS WT FRET data IC50
# Sequence of NRAS WT (P01111 whole entry): as the sequence (P01111 whole entry G12C) above, with C12G counted along it
# Sequence of NRAS WT (P62937 whole entry): as the sequence (P62937 whole entry) above
# Method in brief: as §3
# [1] = 5-day treatment, read-out: Capan-1 Cell Viability assay data (K-Ras G12V, IC50)
# [2] = 5-day treatment, read-out: H358 Cell Viability assay data (K-Ras G12C, IC50)
# [3] = read-out: KRAS G12S FRET data, IC50
# [4] = read-out: KRAS G12C FRET data, IC50
# [5] = KRAS G13D, read-out: KRAS G13D FRET data IC50
# [6] = NRAS G12C, read-out: NRAS G12C FRET data IC50
# [7] = KRAS WT, read-out: KRAS WT FRET data IC50
# [8] = KRAS G12V, read-out: KRAS G12V FRET data IC50
# [9] = read-out: KRAS G13C FRET data, IC50
# [10] = read-out: KRAS G12D FRET data, IC50
Compound,IC50 (Capan-1 (K-Ras G12V); [1]) [µM],IC50 (NCI-H358 (K-Ras G12C); [2]) [µM],IC50 (KRAS G12S; [3]) [nM],IC50 (KRAS G12C; [4]) [nM],IC50 (KRAS G13D; [5]) [nM],IC50 (NRAS G12C; [6]) [nM],IC50 (KRAS WT; [7]) [nM],IC50 (KRAS G12V; [8]) [nM],IC50 (KRAS G13C; [9]) [nM],IC50 (KRAS G12D; [10]) [nM],IC50 (NRAS Q61R) [nM],IC50 (NRAS Q61K) [nM],IC50 (KRAS Q61H) [nM],IC50 (NRAS WT) [nM],also measured
CCn1c(-c2cccnc2[C@H](C)OC)c2c3cc(ccc31)-c1cc(O)cc(c1)C[C@H](NC(=O)[C@H](C(C)C)N(C)C(=O)C1CCc3ccccc3N1)C(=O)N1CCC[C@H](N1)C(=O)OCC(C)(C)C2 (stereo partly drawn) [Example A226],0.1 to 1,0.1 to 1,100 to 1000,10 to 100,100 to 1000,100 to 1000,100 to 1000,100 to 1000,10 to 100,1000 to 10000,100 to 1000,100 to 1000,10 to 100,100 to 1000,–
CCn1c(-c2cccnc2[C@H](C)OC)c2c3cc(ccc31)-c1cc(O)cc(c1)C[C@H](NC(=O)[C@H](C(C)C)N(C)C(=O)C1Cc3cccnc3C1)C(=O)N1CCC[C@H](N1)C(=O)OCC(C)(C)C2 (stereo partly drawn) [Example A250],0.01 to 0.1,0.01 to 0.1,10 to 100,10 to 100,100 to 1000,10 to 100,100 to 1000,10 to 100,10 to 100,100 to 1000,100 to 1000,100 to 1000,10 to 100,10 to 100,–
CCn1c(-c2cccnc2[C@H](C)OC)c2c3cc(ccc31)-c1csc(n1)C[C@H](NC(=O)N1CCCC1)C(=O)N1CCC[C@H](N1)C(=O)OCC(C)(C)C2 [Example A267],0.1 to 1,0.1 to 1,–,–,–,–,–,–,–,–,100 to 1000,100 to 1000,100 to 1000,100 to 1000,"IC50 (KRAS G12S; KRAS G12S FRET data, IC50): 100 to 1000 nM; IC50 (KRAS G12C; KRAS G12C FRET data, IC50): 100 to 1000 nM; IC50 (KRAS G13D; KRAS G13D FRET data IC50, KRAS G13D): 100 to 1000 nM; IC50 (NRAS G12C; NRAS G12C FRET data IC50, NRAS G12C): 10 to 100 nM; IC50 (KRAS WT; KRAS WT FRET data IC50, KRAS WT): 100 to 1000 nM; IC50 (KRAS G12V; KRAS G12V FRET data IC50, KRAS G12V): 100 to 1000 nM; IC50 (KRAS G13C; KRAS G13C FRET data, IC50): 100 to 1000 nM; IC50 (KRAS G12D; KRAS G12D FRET data, IC50): 100 to 1000 nM"
CCn1c(-c2cccnc2[C@H](C)OC)c2c3cc(ccc31)-c1csc(n1)C[C@H](NC(=O)[C@H](C(C)C)N(C)C(=O)N1CCC13CCN(C)CC3)C(=O)N1CCC[C@H](N1)C(=O)OCC(C)(C)C2 [Example A273],0.1 to 1,0.01 to 0.1,10 to 100,10 to 100,100 to 1000,10 to 100,100 to 1000,100 to 1000,100 to 1000,100 to 1000,100 to 1000,100 to 1000,10 to 100,10 to 100,–
CCn1c(-c2cccnc2[C@H](C)OC)c2c3cc(ccc31)-c1csc(n1)C[C@H](NC(=O)[C@H](C(C)C)N(C)C(=O)N1CCC13CN(C)C3)C(=O)N1CCC[C@H](N1)C(=O)OCC(C)(C)C2 [Example A274],0.1 to 1,0.1 to 1,100 to 1000,10 to 100,100 to 1000,10 to 100,10 to 100,100 to 1000,100 to 1000,100 to 1000,100 to 1000,100 to 1000,10 to 100,10 to 100,–
CCn1c(-c2cccnc2[C@H](C)OC)c2c3cc(ccc31)-c1csc(n1)C[C@H](NC(=O)[C@H](C(C)C)N(C)C(=O)N1CC[C@@H]1C(=O)NC)C(=O)N1CCC[C@H](N1)C(=O)OCC(C)(C)C2 [Example A281],0.1 to 1,0.1 to 1,1000 to 10000,1000 to 10000,1000 to 10000,1000 to 10000,1000 to 10000,1000 to 10000,1000 to 10000,> 10000,1000 to 10000,100 to 1000,100 to 1000,1000 to 10000,–
CCn1c(-c2cccnc2[C@H](C)OC)c2c3cc(ccc31)-c1csc(n1)C[C@H](NC(=O)[C@H](C(C)C)N(C)C(=O)N1CC[C@H]1C(=O)NC)C(=O)N1CC(C)C[C@H](N1)C(=O)OCC(C)(C)C2 (stereo partly drawn) [Example A282],0.1 to 1,0.1 to 1,1000 to 10000,100 to 1000,1000 to 10000,100 to 1000,1000 to 10000,1000 to 10000,1000 to 10000,1000 to 10000,1000 to 10000,1000 to 10000,100 to 1000,1000 to 10000,–
CCn1c(-c2cccnc2[C@H](C)OC)c2c3cc(ccc31)-c1csc(n1)C[C@H](NC(=O)[C@H](C(C)C)N(C)C(=O)N1C[C@H](C)N(C)C[C@@H]1C)C(=O)N1CCC[C@H](N1)C(=O)OCC(C)(C)C2 [Example A283],0.1 to 1,0.1 to 1,1000 to 10000,100 to 1000,1000 to 10000,100 to 1000,100 to 1000,1000 to 10000,1000 to 10000,1000 to 10000,100 to 1000,100 to 1000,100 to 1000,100 to 1000,–
CCn1c(-c2cccnc2[C@H](C)OC)c2c3cc(ccc31)-c1csc(n1)C[C@H](NC(=O)[C@H](C(C)C)N(C)C(=O)N1CC3CC(C1)N3C)C(=O)N1CCC[C@H](N1)C(=O)OCC(C)(C)C2 [Example A284],–,–,100 to 1000,100 to 1000,100 to 1000,100 to 1000,100 to 1000,1000 to 10000,100 to 1000,1000 to 10000,1000 to 10000,100 to 1000,100 to 1000,100 to 1000,"IC50 (Capan-1 (K-Ras G12V); read-out: Capan-1 Cell Viability assay data (K-Ras G12V, IC50, uM)): 0.1 to 1 µM; IC50 (NCI-H358 (K-Ras G12C); read-out: H358 Cell Viability assay data (K-Ras G12C, IC50, uM), 5-day treatment): 0.1 to 1 µM"

# — US20230233569A1 (Revolution Medicines, Inc., priority 2020, published 2023)
